Assay results taken from BigSolDB 2.1.

COc1c(C(C)(C)C)cc([N+](=O)[O-])c(C)c1[N+](=O)[O-]
solubility (mole fraction)
Settings | 278.15 K | 283.15 K | 288.15 K | 293.15 K | 298.15 K | 303.15 K | 308.15 K | 313.15 K | 318.15 K
in DMAc | 0.121 | 0.14 | 0.162 | 0.189 | 0.221 | 0.258 | 0.3 | 0.347 | 0.4
in DMF | 0.0875 | 0.107 | 0.127 | 0.154 | 0.183 | 0.221 | 0.263 | 0.31 | 0.372
in THF | 0.157 | 0.177 | 0.203 | 0.231 | 0.264 | 0.302 | 0.342 | 0.391 | 0.446
in acetonitrile | 0.0355 | 0.0456 | 0.0608 | 0.0819 | 0.111 | 0.146 | 0.189 | 0.25 | 0.33
in ethanol | 0.00359 | 0.0046 | 0.00594 | 0.00791 | 0.00992 | 0.0131 | 0.0164 | 0.0215 | 0.0276
in methanol | 0.00266 | 0.00351 | 0.00447 | 0.00561 | 0.00719 | 0.00897 | 0.0112 | 0.0144 | 0.018
in n-butanol | 0.00491 | 0.00673 | 0.0088 | 0.0111 | 0.0143 | 0.0192 | 0.0241 | 0.0308 | 0.0405
in n-propanol | 0.00367 | 0.00463 | 0.00591 | 0.00789 | 0.0105 | 0.0137 | 0.0182 | 0.024 | 0.0311
